The values below come from patent US8513423B2 (Janssen Pharmaceutica, NV, priority 2010, dated 2013).

The structures appear in SMILES notation. Some results are limits rather than exact numbers.

This assay concerns the target T1, purified wild type MGL (wt-MGLL 6H-11-313) (Homo sapiens, UniProt Q99685).
T1 construct: purified wild type MGL (wt-MGLL 6H-11-313)
T1 sequence (Q99685 1-303): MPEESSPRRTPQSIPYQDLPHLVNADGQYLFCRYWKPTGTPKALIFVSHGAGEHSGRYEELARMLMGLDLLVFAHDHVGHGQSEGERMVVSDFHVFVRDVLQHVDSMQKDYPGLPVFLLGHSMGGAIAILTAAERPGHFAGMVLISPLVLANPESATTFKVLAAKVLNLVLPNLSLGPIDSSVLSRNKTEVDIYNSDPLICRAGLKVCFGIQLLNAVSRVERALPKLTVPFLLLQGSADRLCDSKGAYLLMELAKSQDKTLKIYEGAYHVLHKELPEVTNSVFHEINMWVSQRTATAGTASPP
Description: MGL enzyme activity assay (4MU-B cleavage), wild type MGL. Type of assay: biochemical. As to conditions: 10 μM 4MU-B, 5 nM enzyme, 37° C., read-out: MGL wild type inh IC50. The method, boiled down:
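Enzyme (5 nM final) cleaved 4MU-B (10 μM final) in 20 mM PIPES pH 7.0 with 150 mM NaCl and 0.001% Tween 20. Compounds were tested at 17 to 0.0003 μM final. Fluorescence (ex 335/em 440 nm) was monitored at 37° C for 5 min, and IC50 was fitted from fractional activity versus inhibitor concentration.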

As usually defined, the IC50 is the point on the concentration scale where inhibition reaches its midpoint. As to `Cc1c(C(=O)N2CC(C3CCN(C(=O)c4nccs4)CC3)C2)sc2cc(C(F)(F)F)ccc12` [Cpd 20, 4-(1-{[3-Methyl-6-(trifluoromethyl)-1-benzothiophen-2-yl]carbonyl}azetidin-3-yl)-1-(1,3-thiazol-2-ylcarbonyl)piperidine], the IC50 is less than 5 nM.

`O=C(c1nccs1)N1CCC(C2CN(C(=O)c3sc4cc(C(F)(F)F)ccc4c3Cl)C2)CC1` [Cpd 29, 4-(1-{[3-Chloro-6-(trifluoromethyl)-1-benzothiophen-2-yl]carbonyl}azetidin-3-yl)-1-(1,3-thiazol-2-ylcarbonyl)piperidine]: the IC50 is 6 nM.
